Results published in patent US4703036A, “Peptide-aldehydes, process for the preparation thereof and pharmaceutical compositions containing the same” (Richter Gedeon Vegyeszeti Gyar RT, priority 1984, dated 1987).
Non-standard residues stand in square brackets, D forms with d. Residues, ends and D or L forms follow the SMILES beside them. dNMeaIle = CC[C@H](C)[C@@H](NC)C(=O)O

Experiments:
[1] = target: T1, US Standard Human Thrombin (Homo sapiens, UniProt P00734); experiment: Antithrombin activity: clotting time in the thrombin-fibrinogen system; type: biochemical; conditions: for Initial activity I80 (zero day): peptide concentration in the reaction mixture inducing a fivefold prolongation of clotting time compared to the control (15 s)
T1 construct: US Standard Human Thrombin; purchased NIH, Bethesda, Md., USA
Procedure: Antithrombin activities were assayed in a system containing the following components:
(§1) 0.2 ml 0.5 percent bovine fibrinogen in a 0.9 percent solution of sodium chloride,
0.1 ml tris(hydroxymethyl)-amino-methane-hydrochloride-hydrochloric acid buffer (pH=7.2) containing the peptide solution, and
0.1 ml US Standard Human Thrombin (NIH, Bethesda, Md., USA), 10 unit/ml solution.
The clotting time of the peptide-free system is 15 s, measured in the "Schnither-Gross-Coagulometer". The initial activity of the tripeptide-aldehyde sulfates was arbitrarily set up as the mole concentration inducing the fivefold prolongation of clotting time in the system compared to the control (I80 value). The activity of the peptides in the solutions, assayed on the 1st, 3rd and 5th day, was expressed as a percentage of the initial activity (zero day).

male New Zealand rabbits = experiment: In vivo anticoagulant effect: whole blood clotting time and plasma thrombin time; design: species or system rabbit; conditions: lowest dose required to attain therapeutic effect; for Lowest effective dose iv: intravenous infusion for 3 hours; for Lowest effective dose po: oral administration
Procedure: The peptides, dissolved in isotonic saline solution, were administered orally or intravenously to male New Zealand rabbits weighing 2 to 3 kg. At intravenous application infusions of 0.5 to 2.0 mg/kg/h were given at a rate of 6 ml/h for 3 hours. At oral administration 20 to 30 mg/kg doses of the peptides were given in volumes of 2 ml. After application blood samples were taken in 30 minute periods from the ear vein of the rabbits and the clotting time of whole blood was assayed in a Thromboelastograph [H. Harter: Zeitschrift fur klinische Medizin 153, 423 (1955)], simultaneously the plasma thrombin time was measured, too [R. T. S. Jim: J. Lab. Clin. Med. 50, 45 (1957)]. The lowest doses required to attain therapeutic effect (M. Verstraete and R. Verwilghen in Drug Treatment, 2nd ed., Ed.: G. S. Avery, Churchill Livingstone, Edinburgh-London, 1980, p. 919) were presented in Table 3, D-phenylalanyl-L-prolyl-L-arginine-aldehyde sulfate served as reference substance.

[2] = Conversion to the tricyclic compound in aqueous solution, monitored by chromatography; type: physicochemical; conditions: for irreversible conversion to the tricyclic compound: aqueous solution 10 mg/ml, pH=6.0, 40° C., 5 days, thin-layer chromatography
Procedure: The structure of this compound [1,2,4,5,6,6a-hexahydro-1-benzyl-2-oxo-8-(4'-guanidino)-butyl-pyrrolo[1,2- a]imidazolo[2,1-c]pyrazine] was confirmed by mass spectrometry and NMR spectroscopy. […] 817], they are less suitable for anticoagulant therapy.
During stability testing aqueous solutions of D-phenylalanyl-L-prolyl-L-arginine-aldehyde sulfate as well as of the corresponding N-alkyl derivatives with a concentration of 10 mg/ml (pH=6.0) were stored at 40° C. for 5 days. The transformations proceeding in the solutions were monitored by chromatography and by measuring antithrombin activity.

[3] = target: T1, US Standard Human Thrombin; experiment: Change in the antithrombin activity of aqueous solutions of tripeptide-aldehyde sulfates on storage; type: physicochemical; conditions: aqueous solution 10 mg/ml; for Activity (%) Day 1 / Activity (%) Day 2 / Activity (%) Day 3: percentage of initial activity, pH = 6.0, stored at 40° C.; for loss of initial antithrombin activity during the observation period: pH 6.0, 40° C., 5 days
Procedure: The transformations proceeding in the solutions were monitored by chromatography and by measuring antithrombin activity. Antithrombin activities were assayed in a system containing the following components: […] 0.1 ml US Standard Human Thrombin (NIH, Bethesda, Md., USA), 10 unit/ml solution. The clotting time of the peptide-free system is 15 s, measured in the "[…]-Gross-Coagulometer". The initial activity of the tripeptide-aldehyde sulfates was arbitrarily set up as the mole concentration inducing the fivefold prolongation of clotting time in the system compared to the control ([…] value).

plasmin [4] = target: T2, plasmin (Homo sapiens, UniProt P00747); experiment: Effect on the plasmin-fibrin reaction: lysis time of fibrin clot; type: biochemical; design: key: **: No measurable lysis time due to clot of rather loose structure; conditions: peptide-free system 10 minutes
T2 construct: 0.1 U plasmin dissolved in buffer solution (KABI, Stockholm, Sweden); purchased KABI, Stockholm, Sweden
Procedure: as §1
0.1 ml tris(hydroxymethyl)-amino-methane hydrochloride-hydrochloric acid buffer (pH=7.2), containing the peptide,
0.1 ml 0.1 U plasmin dissolved in buffer solution (KABI, Stockholm, Sweden), and
0.1 ml US Standard Human Thrombin (NIH, Bethesda, Md., USA) 10 U/ml solution.
The lysis time of the fibrin gel formed in the peptide-free system is 10 minutes. D-Phenylalanyl-L-prolyl-L-arginine-aldehyde sulfate and the above-mentioned t-butyloxycarbonyl-D-phenylalanyl-L-prolyl-L-arginine-aldehyde hemisulfate were used as reference substances.

[5] = target: T1, US Standard Human Thrombin; conditions: cool solution (5° C.), prolonged period; Belgian patent specification No. 891,708; cited from earlier work
[6] = Conversion to the tricyclic compound in aqueous solution, monitored by chromatography; type: physicochemical
[7] = target: T1, US Standard Human Thrombin; conditions: literature statement; cited from earlier work
plasmin [8] = target: T2, plasmin; conditions: literature statement; cited from earlier work

T2 sequence (P00747 581-810 limits assumed): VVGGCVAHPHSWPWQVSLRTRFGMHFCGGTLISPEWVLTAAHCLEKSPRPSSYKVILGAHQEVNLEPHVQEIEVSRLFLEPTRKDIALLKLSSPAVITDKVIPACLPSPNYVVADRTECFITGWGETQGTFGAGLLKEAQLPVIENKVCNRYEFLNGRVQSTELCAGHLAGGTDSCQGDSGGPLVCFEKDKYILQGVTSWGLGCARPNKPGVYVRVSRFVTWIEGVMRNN
T2 sequence (P00747 97-580 partner limits assumed): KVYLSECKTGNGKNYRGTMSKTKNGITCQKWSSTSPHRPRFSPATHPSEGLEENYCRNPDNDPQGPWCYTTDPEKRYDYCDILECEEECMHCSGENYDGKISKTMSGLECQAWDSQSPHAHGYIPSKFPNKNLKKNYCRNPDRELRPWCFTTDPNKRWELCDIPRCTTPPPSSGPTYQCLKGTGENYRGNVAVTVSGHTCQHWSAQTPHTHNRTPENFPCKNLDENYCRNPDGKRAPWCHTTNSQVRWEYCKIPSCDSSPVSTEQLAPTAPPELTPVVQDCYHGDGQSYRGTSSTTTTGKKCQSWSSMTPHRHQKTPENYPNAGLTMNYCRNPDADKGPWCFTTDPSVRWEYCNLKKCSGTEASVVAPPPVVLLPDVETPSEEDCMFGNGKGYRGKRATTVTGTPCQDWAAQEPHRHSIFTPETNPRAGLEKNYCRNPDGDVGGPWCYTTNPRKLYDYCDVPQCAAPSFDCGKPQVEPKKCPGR

Row | Molecule | Initial activity I80 (zero day) [1] [µM] | Activity (%) Day 1 [3] [%] | Activity (%) Day 2 [3] [%] | Activity (%) Day 3 [3] [%] | loss of initial antithrombin activity during the observation period [3] | irreversible conversion to the tricyclic compound ([2]; sulfate) | Lysis time of fibrin clot (plasmin [4]; peptide content 0.18 μM) [min] | Lysis time of fibrin clot (plasmin [4]; peptide content 0.36 μM) | Lysis time of fibrin clot (plasmin [4]; peptide content 0.72 μM) | Lowest effective dose iv (male New Zealand rabbits) [mg/kg/h] | Lowest effective dose po (male New Zealand rabbits) [mg/kg] | further results
1 | 1,2,4,5,6,6a-hexahydro-1-benzyl-2-oxo-8-(4'-guanidino)-butyl-pyrrolo[1,2- a]imidazolo[2,1-c]pyrazine [tricyclic compound] |  |  |  |  |  |  |  |  |  |  |  | enzyme inhibitory activity ([1]; conversion product, method not described): devoid of enzyme inhibitory activity
2 | CC[C@H](C)[C@@H](NC)C(=O)N1CCC[C@H]1C(=O)N[C@H](C=O)CCCNC(=N)N.O=S(=O)(O)O [N-Methyl-D-alloisoleucyl-L-prolyl-L-arginine-aldehyde sulfate] (H-[dNMeaIle]-Pro-Arg-aldehyde) |  |  |  |  |  |  |  |  |  | 1.0 | 30 | 
3 | CN(C)[C@H](Cc1ccccc1)C(=O)N1CCC[C@H]1C(=O)N[C@H](C=O)CCCNC(=N)N.O=S(=O)(O)O [N,N-Dimethyl-D-phenylalanyl-L-prolyl-L-arginine-aldehyde sulfate] |  |  |  |  |  |  |  |  |  |  | 30 | irreversible conversion to the tricyclic compound [2]: no such conversion was detectable
4 | CC(=O)O.N=C(N)NCCC[C@@H](C=O)NC(=O)[C@@H]1CCCN1C(=O)[C@H](N)Cc1ccccc1 [D-phenylalanyl-L-prolyl-L-arginine-aldehyde acetate, reference compound] |  |  |  |  |  |  |  |  |  |  |  | transformation into the corresponding tricyclic compound ([2]; conditions not stated): especially highly susceptible
5 | N=C(N)NCCC[C@@H](C=O)NC(=O)[C@@H]1CCCN1C(=O)[C@H](N)Cc1ccccc1.O=S(=O)(O)O [D-Phenylalanyl-L-prolyl-L-arginine-aldehyde sulfate, reference compound] | 0.25 | 100 | 50 | 40 | more than 50% |  | 10 | ** | no clot formed | 0.5 | 20 | irreversible conversion to the tricyclic compound [2]: gradually reduced; stability: retention of initial activity in cool solution [5]: retaining its initial activity; time to practically complete transformation into the tricyclic compound at 37° to 40° C. ([6]; 37° to 40° C.): 10 to 14 days; transformation into the tricyclic compound at 80° to 100° C. ([6]; 80° to 100° C.): within hours
6 | t-butyloxycarbonyl-D-phenylalanyl-L-prolyl-L-arginine-aldehyde hemisulfate |  |  |  |  |  |  | 10 | 20 min | 40 min |  |  | inhibition of the thrombin-fibrinogen reaction [7]: inhibit; effect on the plasmin-fibrin reaction (plasmin [8]): inhibit

Second part, led by results:

Row | Initial activity I80 (zero day) [1] [µM] | Activity (%) Day 1 [3] [%] | Activity (%) Day 2 [3] [%] | Activity (%) Day 3 [3] [%] | loss of initial antithrombin activity during the observation period [3] | irreversible conversion to the tricyclic compound ([2]; sulfate) | Lysis time of fibrin clot (plasmin [4]; peptide content 0.18 μM) [min] | Lysis time of fibrin clot (plasmin [4]; peptide content 0.36 μM) | Lysis time of fibrin clot (plasmin [4]; peptide content 0.72 μM) | Molecule | Lowest effective dose iv (male New Zealand rabbits) [mg/kg/h] | Lowest effective dose po (male New Zealand rabbits) [mg/kg] | further results
7 | 0.25 | 100 | 100 | 100 |  |  |  |  |  | CN[C@H](Cc1ccccc1)C(=O)N1CCC[C@H]1C(=O)N[C@@H](C=O)CCCNC(=N)N.O=S(=O)(O)O [N-Methyl-D-phenylalanyl-L-prolyl-D-arginine-aldehyde sulfate] |  |  | 
8 | 0.31 | 100 | 85 | 80 | 15 to 20% | fail to be irreversibly converted |  |  |  | CC(C)CN[C@H](Cc1ccccc1)C(=O)N1CCC[C@H]1C(=O)N[C@H](C=O)CCCNC(=N)N.O=S(=O)(O)O [N-Isobutyl-D-phenylalanyl-L-prolyl-L-arginine-aldehyde sulfate] |  | 20 | irreversible conversion to the tricyclic compound ([2]; listed as N-isobutyl derivative, sulfate): no such conversion was detectable
9 |  |  |  |  | retained its initial potency | fail to be irreversibly converted | 10 | ** | no clot formed | CN[C@H](Cc1ccccc1)C(=O)N1CCC[C@H]1C(=O)N[C@H](C=O)CCCNC(=N)N.O=S(=O)(O)O [N-Methyl-D-phenylalanyl-L-prolyl-L-arginine-aldehyde sulfate] | 0.5 | 20 | irreversible conversion to the tricyclic compound ([2]; listed as N-methyl derivative, sulfate): no such conversion was detectable
10 | 0.21 | 100 | 100 | 85 | 15 to 20% | fail to be irreversibly converted |  |  |  | CCN[C@H](Cc1ccccc1)C(=O)N1CCC[C@H]1C(=O)N[C@H](C=O)CCCNC(=N)N.O=S(=O)(O)O [N-Ethyl-D-phenylalanyl-L-prolyl-L-arginine-aldehyde sulfate] | 0.5 | 20 | irreversible conversion to the tricyclic compound ([2]; listed as N-ethyl derivative, sulfate): no such conversion was detectable
